From patent publication US11059830B2, “Compounds that participate in cooperative binding and uses thereof” (Revolution Medicines, Inc., priority 2015, dated 2021)

Tests used:
[1] = target: T1, CEP25011.4 (residues 2134-2231) (Homo sapiens (Human), UniProt P62942+Q9BV73); test: ITC binding of FKBP12-compound binary complex to CEP250
Protocol: (§1) This protocol utilizes Isothermal Titration Calorimetry (ITC) to directly measure the heat change associated with binding of FKBP12-Compound 2 and FKBP12-Compound 6 binary complexes to CEP250. Measurement of the heat change allows accurate determination of association constants (Ka), reaction stoichiometry (N), and the change in binding enthalpy (ΔH).
(§2) Compound 2 and Compound 6 in 100% DMSO (in-house), Protein Buffer (10 mM HEPES, pH 7.5, 75 mM NaCl, 0.5 mM TCEP), assay buffer (protein buffer+1% DMSO), FKBP12 (in-house), CEP25029.4 (residues 1982-2231) and CEP25011.4 (residues 2134-2231) (in-house).
(§3) MicroCal™ ITC200 (GE Healthcare) Experimental Protocol: FKBP12 stock solution was diluted to 10 μM in assay buffer (1% DMSO final). Compound was added to FKBP12 to 20 μM (1% DMSO final), and binary complex was filled into the reaction cell of the ITC device after 5-10 min pre-incubation time. CEP250 protein stocks were diluted to 50 μM in assay buffer and supplemented with 20 μM compound (1% DMSO final) before being filled into the injection syringe. A control experiment in the absence of compound was also run to determine the heat associated with operational artifacts and the dilution of titrant as it was injected from the syringe into the reaction cell.

[2] = target: CEP25029.4 (residues 1982-2231) (Homo sapiens (Human), UniProt P62942+Q9BV73); test: as above
CEP25029.4 (residues 1982-2231), sequence (Q9BV73 1982-2231): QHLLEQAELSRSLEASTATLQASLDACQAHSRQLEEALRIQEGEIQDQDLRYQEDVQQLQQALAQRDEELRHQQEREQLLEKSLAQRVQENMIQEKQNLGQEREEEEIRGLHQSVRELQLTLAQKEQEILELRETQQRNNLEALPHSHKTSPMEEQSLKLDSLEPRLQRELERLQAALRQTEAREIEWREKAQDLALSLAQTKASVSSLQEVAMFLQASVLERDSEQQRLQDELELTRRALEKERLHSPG
CEP25029.4 (residues 1982-2231), sequence (P62942 whole entry, the tested form may be a part): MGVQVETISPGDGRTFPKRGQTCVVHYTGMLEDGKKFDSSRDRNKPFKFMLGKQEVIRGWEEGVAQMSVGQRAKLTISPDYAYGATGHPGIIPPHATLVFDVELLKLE
Protocol: as §1, §2, §3

FKBP12 [3] = target: T2, FKBP12 (Homo sapiens (Human), UniProt P62942); test: SPR binding of compound (analyte) to immobilized FKBP12 (Example 7); details: 25° C., 12×HIS tagged FKBP12 immobilized on NTA chip; read-out: SPR affinity to FKBP12: KD
T2 sequence (P62942 whole entry): as the sequence (P62942 whole entry, the tested form may be a part) above
Protocol: This protocol utilizes Surface Plasmon Resonance (SPR) as a method to determine kinetics (KD, Ka, Kd) for the binding of compound (analyte) to immobilized FKBP12 (ligand).
Compound in 100% DMSO (in-house), 10×HBS-P+ buffer (GE Healthcare BR-1006-71), Assay buffer (1×HBS-P+ buffer, 1% DMSO), 12×HIS tagged FKBP12 (in-house).
(§4) Experiments are performed at 25° C. Stock solution of 12×HIS tagged FKBP12 is diluted to 100 nM in assay buffer (1% DMSO final). Approximately 500-600 RU of FKBP12 is immobilized on one of two flow cells of an activated NTA chip. The second flow cell is not activated as a reference for non-specific interaction of the analyte to the sensor chip. Various concentrations of compound (1 nM-1 μM range), serially diluted into the same assay buffer (1% DMSO final), are injected onto the FKBP12 surface and reference surface at a flow rate of 10 μl/min. The surface is regenerated between analyte injections with 350 mM EDTA.
(§5) The BiaEvaluation software program is used for data fitting. All data is reference subtracted against both the reference flow cell and a buffer injection. For kinetic analyses, data is locally fit to a 1:1 interaction model.

[4] = target: T1, CEP25011.4 (residues 2134-2231); test: SPR binding of CEP250 (analyte) to immobilized FKBP12-Compound 2 binary complex; details: FKBP12/Compound 2 complex binding to CEP25011.4, SPR, 1 μM compound
Protocol: (§6) This protocol utilizes Surface Plasmon Resonance (SPR) as a method to determine kinetics (KD, Ka, Kd) for the binding of CEP250 (analyte) to immobilized FKBP12-Compound 2 binary complex (ligand).
(§7) Compound 2 in 100% DMSO (in-house), 10×HBS-P+ buffer (GE Healthcare BR-1006-71), Assay buffer (1×HBS-P+ buffer, 1% DMSO, 1 μM Compound 2), 12×HIS tagged FKBP12 (in-house), CEP25029.2 (residues 1982-2231) and CEP25011.4 (residues 2134-2231) (in-house).
as §4, with “buffer containing 1 μM Compound 2” for “buffer”, “200-400” for “500-600”, “CEP250” for “compound”
as §5

[5] = target: CEP25029.2 (residues 1982-2231) (Homo sapiens (Human), UniProt P62942+Q9BV73); test: as above; details: FKBP12/Compound 2 complex binding to CEP25029.2, SPR, 1 μM compound
CEP25029.2 (residues 1982-2231), sequence (Q9BV73 1982-2231): as the sequence (Q9BV73 1982-2231) above
CEP25029.2 (residues 1982-2231), sequence (P62942 whole entry, the tested form may be a part): as the sequence (P62942 whole entry, the tested form may be a part) above
Protocol: as §6, §7
as §4, with “buffer containing 1 μM Compound 2” for “buffer”, “200-400” for “500-600”, “CEP250” for “compound”
as §5

FKBP12 [6] = target: T2, FKBP12; test: AlphaLISA FKBP12 binding: inhibition of binding of biotinylated FK506 to FLAG tagged FKBP12; details: read-out: Binding affinity to FKBP12 (by displacement of FK506)
Source text: The binding of compounds of the invention to FKBP12 can be determined using the following protocol.
This protocol utilizes Perkin Elmers AlphaLISA technology platform to detect FKBP binders by measuring the inhibition of binding of biotinylated FK506 to FLAG tagged FKBP12.
10×TBST Buffer (Boston BioProducts IBB-181), Biotinylated FK506 (in-house), FLAG tagged FKBP (in-house); anti-FLAG Donor beads (Perkin Elmer AS103) and Streptavidin Acceptor beads (Perkin Elmer AL125); Compounds in DMSO (in-house), FK506.
Experimental Protocol/Description of Assay: Add 20 uL of 12.5 nM FKBP-FLAG working stock to each well of the 96-well plate. Add 1 uL of test compound (100% DMSO) to each well of the plate using the Janus MTD head and P20 tips (except control wells). Add 1 uL of DMSO to negative control wells and 1 uL of 50 uM FK506 solution to positive control wells. In the dark, add 20 uL of combined Donor/Acceptor beads to each well. Incubate in the dark for 30 minutes at room temperature. In the dark, add 10 uL of 5 nM biotinylated FK506 working stock to each well. Incubate in the dark for 60 minutes at room temperature. Protect plate from light until reading on Biotek Synergy2 Plate Reader; Alphalisa 96-well protocol (680 excitation/615 emission).

T1 sequence (Q9BV73 2134-2231): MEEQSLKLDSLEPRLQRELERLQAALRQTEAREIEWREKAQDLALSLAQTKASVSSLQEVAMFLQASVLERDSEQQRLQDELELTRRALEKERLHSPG
T1 sequence (P62942 whole entry, the tested form may be a part): as the sequence (P62942 whole entry, the tested form may be a part) above

CC[C@H](Cc1ccccc1)[C@@H]1/C=C/C/C=C/C[C@@H](C)[C@H](O)[C@@H](C)[C@@H]2CC[C@@H](C)C(=O)C(O)(O2)C(=O)N2CCCC[C@H]2C(=O)O1 [Compound 2]
Kd [1]: 70 nM
ΔH ([1]; ITC, FKBP12 10 μM in cell, CEP25011.4 68 μM in syringe, ligand 20 μM, 298 K): -11.8 kcal/mol
ΔG ([1]; ITC, FKBP12 10 μM, CEP25011.4 68 μM, ligand 20 μM, 298 K, ΔG = −RT ln Ka): -9.739 kcal/mol
−T*ΔS ([1]; ITC, FKBP12 10 μM, CEP25011.4 68 μM, ligand 20 μM, 298 K, −TΔS = ΔG − ΔH): 2.06 kcal/mol
Kd [2]: 190 nM
ΔH ([2]; ITC, FKBP12 10 μM in cell, CEP25029.4 118 μM in syringe, ligand 20 μM, 298 K): -12.48 kcal/mol
ΔG ([2]; ITC, FKBP12 10 μM, CEP25029.4 118 μM, ligand 20 μM, 298 K, ΔG = −RT ln Ka): -9.18 kcal/mol
−T*ΔS ([2]; ITC, FKBP12 10 μM, CEP25029.4 118 μM, ligand 20 μM, 298 K, −TΔS = ΔG − ΔH): 3.298 kcal/mol
Kd (FKBP12 [3]): 12.6 nM
Kd [4]: 0.00309 s⁻¹
kon ([4]; read-out: Ka): 571000 M⁻¹ s⁻¹
koff [5]: 9.25e-05 s⁻¹
kon ([5]; read-out: Ka): 311000 M⁻¹ s⁻¹
IC50 (FKBP12 [6]): 1.5 nM
